This passage reports IC50 results from BindingDB's records for doi:10.1021/jm9911229 (University of Ferrara, 2000).

Structures can show the parent of a compound that is named as a salt.

This assay is described as follows: Tested for 50% inhibition of generation of Human Ha-ras polymerase chain reaction(PCR) products.

Molecule `Cn1cc(NC(=O)c2cc(NC(=O)c3cc(NC(=O)c4cc5cc(N(CCCl)CCCl)ccc5[nH]4)cn3C)cn2C)cc1C(=O)NCCC(=N)N` [5-[Bis-(2-chloro-ethyl)-amino]-1H-indole-2-carboxylic acid (5-{5-[5-(2-carbamimidoyl-ethylcarbamoyl)-1-methyl-1H-pyrrol-3-ylcarbamoyl]-1-methyl-1H-pyrrol-3-ylcarbamoyl}-1-methyl-1H-pyrrol-3-yl)-amide; hydrochloride] came in with an IC50 of 0.02 µM.

Molecule `Cn1cc(NC(=O)c2cc(NC(=O)c3cc(NC(=O)c4cc5cc(N(CCCl)CCCl)ccc5n4C)cn3C)cn2C)cc1C(=O)NCCC(=N)N` [5-[Bis-(2-chloro-ethyl)-amino]-1-methyl-1H-indole-2-carboxylic acid (5-{5-[5-(2-carbamimidoyl-ethylcarbamoyl)-1-methyl-1H-pyrrol-3-ylcarbamoyl]-1-methyl-1H-pyrrol-3-ylcarbamoyl}-1-methyl-1H-pyrrol-3-yl)-amide; hydrochloride] displayed an IC50 of 0.02 µM. `Cn1cc(NC(=O)c2cc(NC(=O)c3cc(NC(=O)c4cc5cc(NC(=O)c6ccc(N(CCCl)CCCl)cc6)ccc5[nH]4)cn3C)cn2C)cc1C(=O)NCCC(=N)N` [5-{4-[Bis-(2-chloro-ethyl)-amino]-benzoylamino}-1H-indole-2-carboxylic acid (5-{5-[5-(2-carbamimidoyl-ethylcarbamoyl)-1-methyl-1H-pyrrol-3-ylcarbamoyl]-1-methyl-1H-pyrrol-3-ylcarbamoyl}-1-methyl-1H-pyrrol-3-yl)-amide; hydrochloride] gave an IC50 of 0.015 µM.

On to `Cn1cc(NC(=O)c2cc(NC(=O)c3cc(NC(=O)c4cc5cc(NC(=O)c6ccc(N(CCCl)CCCl)cc6)ccc5n4C)cn3C)cn2C)cc1C(=O)NCCC(=N)N` [5-{4-[Bis-(2-chloro-ethyl)-amino]-benzoylamino}-1-methyl-1H-indole-2-carboxylic acid (5-{5-[5-(2-carbamimidoyl-ethylcarbamoyl)-1-methyl-1H-pyrrol-3-ylcarbamoyl]-1-methyl-1H-pyrrol-3-ylcarbamoyl}-1-methyl-1H-pyrrol-3-yl)-amide; hydrochloride], for which the IC50 was determined as 0.015 µM. The value for `Cn1cc(NC(=O)c2cc(NC(=O)c3cc(NC(=O)c4cc5cc(NC(=O)c6ccc(N(CCCl)CCCl)cc6)ccc5o4)cn3C)cn2C)cc1C(=O)NCCC(=N)N` [5-{4-[Bis-(2-chloro-ethyl)-amino]-benzoylamino}-benzofuran-2-carboxylic acid (5-{5-[5-(2-carbamimidoyl-ethylcarbamoyl)-1-methyl-1H-pyrrol-3-ylcarbamoyl]-1-methyl-1H-pyrrol-3-ylcarbamoyl}-1-methyl-1H-pyrrol-3-yl)-amide; hydrochloride] was 0.015 µM; that for `Cn1cc(NC(=O)c2cc(NC(=O)c3cc(NC(=O)c4nc5ccc(NC(=O)c6ccc(N(CCCl)CCCl)cc6)cc5[nH]4)cn3C)cn2C)cc1C(=O)NCCC(=N)N` [5-{4-[Bis-(2-chloro-ethyl)-amino]-benzoylamino}-1H-benzoimidazole-2-carboxylic acid (5-{5-[5-(2-carbamimidoyl-ethylcarbamoyl)-1-methyl-1H-pyrrol-3-ylcarbamoyl]-1-methyl-1H-pyrrol-3-ylcarbamoyl}-1-methyl-1H-pyrrol-3-yl)-amide; hydrochloride] was 0.015 µM; that for `Cn1cc(NC(=O)c2cc(NC(=O)c3cc(NC(=O)c4cc5cc(N(CCCl)CCCl)ccc5o4)cn3C)cn2C)cc1C(=O)NCCC(=N)N` [5-[Bis-(2-chloro-ethyl)-amino]-benzofuran-2-carboxylic acid (5-{5-[5-(2-carbamimidoyl-ethylcarbamoyl)-1-methyl-1H-pyrrol-3-ylcarbamoyl]-1-methyl-1H-pyrrol-3-ylcarbamoyl}-1-methyl-1H-pyrrol-3-yl)-amide; hydrochloride] was 0.015 µM.

The term IC50 denotes the concentration that inhibits the measured activity by half. Read a high IC50 as a need for much substance.
